In patent US10273267B2, “Beta-hairpin peptidomimetics as selective elastase inhibitors” (POLYPHOR AG, priority 2013, dated 2019) one finds IC50, hNE/PPE selectivity and hNE/hPr3 selectivity data, which are given here for two compounds.

Broadly, the IC50 is the midpoint of a concentration-inhibition curve.

What all share (type): biochemical
In assay [1] the target is T1, human neutrophil elastase (Homo sapiens, UniProt P08246).
T1 construct: purchased Serva Electrophoresis, Germany
T1 sequence (P08246 30-267): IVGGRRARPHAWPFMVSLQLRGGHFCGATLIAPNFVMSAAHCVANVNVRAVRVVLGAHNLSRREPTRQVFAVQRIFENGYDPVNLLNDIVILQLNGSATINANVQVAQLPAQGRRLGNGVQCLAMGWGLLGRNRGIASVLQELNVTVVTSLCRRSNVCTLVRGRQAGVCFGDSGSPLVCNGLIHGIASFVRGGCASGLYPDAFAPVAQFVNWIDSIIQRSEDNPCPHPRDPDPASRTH
Put plainly: Inhibition of human neutrophil elastase (hydrolysis of MeOSuc-AAPV-pNA). Particulars: substrate MeOSuc-AAPV-pNA 0.3 mM, enzyme 10 nM, 37° C., pH 8; read-out: Human neutrophil elastase (hNE) IC50. An outline of the steps: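 MeOSuc-AAPV-pNA (0.3 mM) hydrolysis by 10 nM enzyme at 37° C with serially diluted peptides (1% DMSO) in 50 mM Tris pH 8, 300 mM NaCl, 0.01% Tween20. pNA release read at 405 nm over 30 minutes; IC50 from 4-parameter Hill fit.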

Assay [2] concerns the target T2, porcine pancreatic elastase (Sus scrofa, UniProt P00772).
T2 construct: purchased Sigma, USA
Kind of assay: Inhibition of porcine pancreatic elastase (hydrolysis of MeOSuc-AAA-pNA). The settings on record: for hNE/PPE selectivity: ratio of PPE IC50 to hNE IC50; for IC50: substrate MeOSuc-AAA-pNA 1 mM, enzyme 15 nM, 37° C., pH8, read-out: Porcine pancreatic elastase (PPE) IC50. Put shortly: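 Elastase (15 nM) incubated at 37 °C with 1 mM MeOSuc-AAA-pNA and serially diluted peptides (0.5% DMSO) in 50 mM Tris pH 8, 100 mM NaCl, 0.01% Tween20. pNA release read at 405 nm over 30 min; IC50 from 4-parameter Hill fit.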

The target of assay [3] is T3, human proteinase 3 (Homo sapiens, UniProt P24158).
T3 construct: purchased Elastin Products Company, USA
T3 sequence (P24158 28-248): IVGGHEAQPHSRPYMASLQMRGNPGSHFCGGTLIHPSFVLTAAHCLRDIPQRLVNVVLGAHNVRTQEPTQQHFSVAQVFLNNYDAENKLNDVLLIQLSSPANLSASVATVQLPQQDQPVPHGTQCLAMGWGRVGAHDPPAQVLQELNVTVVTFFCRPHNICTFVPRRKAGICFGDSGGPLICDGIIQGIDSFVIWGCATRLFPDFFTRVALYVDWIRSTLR
Put plainly: Inhibition of human proteinase 3 (substrate Boc-Ala-Ala-Nva-SBzl). Particulars: for hNE/hPr3 selectivity: ratio of hPr3 IC50 to hNE IC50; for IC50: substrate Boc-Ala-Ala-Nva-SBzl 1 mM, enzyme 10 nM, 37° C., pH7.4, read-out: Human proteinase 3 (hPr3) IC50. Put shortly:
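Enzyme at 10 nM incubated at 37°C with 1 mM thiobenzyl ester substrate, 250 μM 4,4′-dithiodipyridine and serial peptide dilutions (0.5% DMSO) in Tris pH 7.4, 150 mM NaCl, 0.01% Tween20. Absorbance at 340 nm followed over 30 min; IC50 from 4-parameter Hill fit.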

Where a SMILES comes first, the peptide text is derived from it. [ ]: non-standard residue; d: D form. Oic = O=C(O)[C@@H]1C[C@@H]2CCCC[C@@H]2N1; Gly(octyl) = CCCCCCCC[C@H](N)C(=O)O

T2 sequence (P00772 27-266): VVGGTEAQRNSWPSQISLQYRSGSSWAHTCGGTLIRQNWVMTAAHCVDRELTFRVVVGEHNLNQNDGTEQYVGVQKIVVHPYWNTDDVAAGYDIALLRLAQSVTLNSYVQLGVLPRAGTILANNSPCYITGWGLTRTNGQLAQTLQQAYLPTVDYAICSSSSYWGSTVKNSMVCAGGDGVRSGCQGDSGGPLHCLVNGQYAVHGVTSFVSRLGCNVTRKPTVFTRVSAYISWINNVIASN

On to `CCCCCCCC[C@@H]1NC(=O)[C@H](C(C)C)NC(=O)[C@@H](CO)NC(=O)[C@H]([C@@H](C)O)NC(=O)[C@H](CCCCN)NC(=O)[C@H](CCC(N)=O)NC(=O)[C@@H]2CCCN2C(=O)[C@@H]2CCCN2C(=O)[C@H]([C@@H](C)CC)NC(=O)[C@H](CO)NC(=O)[C@H](C)NC(=O)[C@H]([C@@H](C)O)NC(=O)[C@H](CCC(=O)O)NC1=O` [Example 30, Cyclo(-OctGly-Glu-Thr-Ala-Ser-Ile-Pro-Pro-Gln-Lys-Thr-^DSer-Val-)] (cyclo([Gly(octyl)]ETASIPPQKT[dS]V)), for which the IC50 in assay [1] was 0.012 µM. Further, in assay [2], the hNE/PPE selectivity was 4267 and the IC50 amounted to 51.2 µM. Besides, in assay [3], the hNE/hPr3 selectivity turned out to be 1192 and the half-maximal inhibitory concentration (IC50) was 14.3 µM.

Consider `CC[C@H](C)[C@@H]1NC(=O)[C@H](CO)NC(=O)[C@H](C)NC(=O)[C@H]([C@@H](C)O)NC(=O)[C@H](C(C)C)NC(=O)[C@H](CCCNC(=N)N)NC(=O)[C@@H]2CCCN2C(=O)[C@H]2CCCN2C(=O)[C@H]([C@@H](C)O)NC(=O)[C@H](CCCCN)NC(=O)[C@H](CCC(N)=O)NC(=O)[C@@H]2C[C@@H]3CCCC[C@@H]3N2C(=O)[C@@H]2CCCN2C1=O` [Example 41] (cyclo(RVTASIP[Oic]QKT[dP]P)), for which the results for the IC50 in assay [1], in assay [2] and in assay [3] were 0.0079 µM, greater than 100 µM and greater than 100 µM, respectively. Further, the hNE/PPE selectivity in assay [2] is greater than 12658. For the same compound, the hNE/hPr3 selectivity in assay [3] is recorded as greater than 12658.
